# Laboratory results from patent publication US6583147B1, “Pyrazolopyrimidinone derivatives for the treatment of impotence” (Dong A Pharm Co., Ltd., priority 1998, dated 2003).
# Read-outs that look alike come from different tables or passages of the source.
# Experiments:
# rats = assay: Penile erection test using rats; format: in vivo, rat; conditions: oral single dose 10 mg/kg in 0.5% methyl cellulose, observed for 2 hours
# [1] = molecular target: T1, Phosphodiesterase-5 enzyme (PDE 5) (Homo sapiens, UniProt O76074); assay: Test for phosphodiesterase-5 (PDE 5) activity; format: biochemical; conditions: PDE 5 fraction from human corpus cavernosal tissues
# T1 construct: separated by HPLC (Mono Q anion exchange column) with concentration gradient of 0-500 mM NaCl to elute PDE isozymes; from tissue; host or cells: human corpus cavernosal tissue
# [2] = molecular target: T2, Phosphodiesterase-3 enzyme (PDE 3) (Oryctolagus cuniculus, UniProt G1ST54); assay: Test for phosphodiesterase-3 (PDE 3) activity; format: biochemical; conditions: PDE 3 fraction from platelets of a rabbit
# T2 construct: The supernatant was separated by DEAE-cellulose column chromatography (Whatman DE52 bead); from tissue; host or cells: rabbit platelets
# T2 sequence (G1ST54 1-1128): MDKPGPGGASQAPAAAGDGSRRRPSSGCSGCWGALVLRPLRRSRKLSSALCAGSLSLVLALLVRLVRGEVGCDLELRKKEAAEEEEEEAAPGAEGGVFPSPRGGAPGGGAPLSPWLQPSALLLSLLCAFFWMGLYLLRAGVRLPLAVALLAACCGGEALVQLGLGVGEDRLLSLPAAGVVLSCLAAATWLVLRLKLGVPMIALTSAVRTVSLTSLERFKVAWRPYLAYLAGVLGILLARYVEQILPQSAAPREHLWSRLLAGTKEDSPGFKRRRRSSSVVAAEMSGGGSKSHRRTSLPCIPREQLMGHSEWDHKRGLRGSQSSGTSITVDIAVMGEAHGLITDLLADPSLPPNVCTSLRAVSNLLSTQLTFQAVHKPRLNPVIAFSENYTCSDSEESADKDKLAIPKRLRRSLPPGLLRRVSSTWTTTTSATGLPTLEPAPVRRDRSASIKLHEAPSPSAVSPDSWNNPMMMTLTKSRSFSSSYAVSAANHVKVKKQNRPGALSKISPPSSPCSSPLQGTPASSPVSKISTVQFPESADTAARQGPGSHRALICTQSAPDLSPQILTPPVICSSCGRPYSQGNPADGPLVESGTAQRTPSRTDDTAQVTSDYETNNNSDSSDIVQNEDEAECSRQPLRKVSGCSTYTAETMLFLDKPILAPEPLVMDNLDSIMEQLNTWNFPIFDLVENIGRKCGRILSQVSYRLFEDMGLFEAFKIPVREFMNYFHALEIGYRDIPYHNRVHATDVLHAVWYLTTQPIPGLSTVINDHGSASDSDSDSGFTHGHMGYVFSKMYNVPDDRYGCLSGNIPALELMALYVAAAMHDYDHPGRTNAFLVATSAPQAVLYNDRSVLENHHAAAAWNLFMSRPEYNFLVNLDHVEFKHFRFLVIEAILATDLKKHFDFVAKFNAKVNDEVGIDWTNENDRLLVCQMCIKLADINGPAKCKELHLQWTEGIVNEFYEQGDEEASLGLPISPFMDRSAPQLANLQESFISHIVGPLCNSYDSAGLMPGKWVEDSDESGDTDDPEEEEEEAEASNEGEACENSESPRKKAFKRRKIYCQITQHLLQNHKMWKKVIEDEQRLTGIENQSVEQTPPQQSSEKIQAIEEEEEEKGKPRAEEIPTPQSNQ
# Outline: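 PDE3 taken from rabbit platelets as a DEAE-cellulose fraction, incubated with inhibitor and [3H]-cAMP or [3H]-cGMP (500 nM) for about 1 h at 30° C, pH 7.4. Product converted by snake venom or 5′-nucleotidase, unreacted substrate removed on anion-exchange resin, supernatant radioactivity counted by β-counter.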
# [3] = Acute oral toxicity test in rats; conditions: SD, rat, in vivo
# [4] = Solubility in buffer solution in pH=2&5; format: physicochemical; conditions: for solubility at 30 min: 20 °C, thermodynamic from solid
# Procedure: According to that defined in the Korea Pharmacopoeia, citrate-HCl buffer (pH 2) and citrate-NaOH buffer (pH 5) solutions were added to the powdered compounds of formula 1, respectively. After subsequent severe shaking for 30 sec every 5 min in […] for 30 min, the level of compounds in the filtrate was measured by high performance liquid chromatography.
# [5] = Metabolism in rat liver (9,000xg supernatant fraction with NADPH); format: in vitro ADME; conditions: 10 ug/ml, 37° C., 1 hr, rat liver 9,000xg supernatant with NADPH generating solution
# Procedure: In order to evaluate the extent of metabolism of the compounds of formula 1, the metabolism in rat liver was studied as below similar to the reported method (C. L. Litterist, E. G. Mimnaugh, R. I. Reagan and T. G. Gram., Drug. Metabol. Disposit., 1975, 3, 259-265). In short, the disappearance of compounds after incubation in 9, 000×g supernatant fraction of rat liver homogenate in the presence of NADPH (reduced nicotinamide adenine dinucleotide phosphate) was evaluated.
# First, Sprague-Dawley rat (Korea Experiment Animals, SPF) liver was isolated after perfusion through portal vein with 0.1 M phosphate buffer of pH 7.0 using tissue homogenizer at 4° C. After centrifugation at 9,000×g for 20 min, the supernatants were collected.
# The compound stock solution was spiked (10 ug/ml) into each of the eppendorf tubes containing 1 ml of the mixed solution composing 1 volume of supernatants and 2 volumes of generating solution. The generating solution contains 1 mM NADP, 10 mM glucose-6-phosphate, 50 mM nicotinamide and 5 MM MgCl2 in 0.1 M phosphate buffer of pH 7.0. After vortex-mixing, each test tube was incubated in a water bath kept at 37° C. After 1 hr, was added acetonitrile to the reaction mixture and centrifuged. 100 ul of aliquot of the supernatant was sampled from each test tube for measuring the remnants by high performance liquid chromatography.
# [6] = molecular target: Phosphodiesterase-6 enzyme (PDE 6) (Aquarana catesbeiana, UniProt Z9LGG0MB32+Z9OH76POJ0); assay: Test for phosphodiesterase-6 (PDE 6) activity; format: biochemical, bullfrog; conditions: PDE 6 fraction from retina of bullfrogs, trypsin-activated
# [7] = system: men with erectile dysfunction of organic cause; conditions: oral administration; cited from earlier work
# [8] = citrate-HCl buffer, pH 2, aqueous buffer, citrate-HCl buffer (pH 2), read-out: solubility pH 2
# [9] = citrate-NaOH buffer, pH 5, aqueous buffer, citrate-NaOH buffer (pH 5), read-out: solubility pH 5
SMILES,PEI (penile erection index) (rats),genital grooming (number of genital groomings) (rats),IC50 [1] [µM],IC50 [2] [µM],LD50 ([3]; po) [mg/kg],solubility pH 2 ([4]; citrate-HCl buffer (pH 2)) [ug/ml],"solubility at 30 min [4, 8] [µg/mL]",remnants (%) [5] [%],"LD50 ([3]; 1 g/kg, rats, oral single dose, read-out: lethal dose (LD50) of oral administration) [mg/kg]","solubility at 30 min [4, 9] [µg/mL]",IC50 [6] [µg/mL],response rate [7]
"CCCOc1ccc(S(=O)(=O)NCCC2CCCN2C)cc1-c1nc2c(CCC)nn(C)c2c(=O)[nH]1 (stereo not shown) [Example 68, 5-[2-propyloxy-5-(1-methyl-2-pyrrolidinylethylamidosulfonyl)phenyl]-1-methyl-3-propyl-1,6-dihydro-7H-pyrazolo(4,3-d)pyrimidin-7-one]",233.3 ± 152.8,3.0 ± 2.0,0.00885,70.1,> 1000,5356,3720 to 5360,93.0,–,–,–,–
"CCOc1ccc(S(=O)(=O)NCCC2CCCN2C)cc1-c1nc2c(CC(C)C)nn(C)c2c(=O)[nH]1 (stereo not shown) [Example 70, 5-[2-ethoxy-5-(1-methyl-2-pyrrolidinylethylamidosulfonyl)phenyl]-1-methyl-3-isobutyl-1,6-dihydro-7H-pyrazolo(4,3-d)pyrimidin-7-one]",175.0 ± 50.0,1.8 ± 0.5,0.0203,61.5,–,–,795,94.1,> 1000,708,–,–
"CCCc1nn(C)c2c(=O)[nH]c(-c3cc(S(=O)(=O)N4CCN(C)CC4)ccc3OCC)nc12 [sildenafil, reference compound]",–,3.1 ± 1.2,–,71.4,–,–,1580,–,–,480,0.0767 ± 0.00153,around 80%
